In this assay the target is T1, PDGF-Ra (Homo sapiens, UniProt P16234).
T1 construct: host or cells: G-292 human osteosarcoma cells
Nature of the assay: Inhibitory activity against PDGF-Ra phosphorylation by PDGF-AA stimulation using G292. As to conditions: for IC50: > means inhibition at indicated concentration not more than 50%, < and << not less than 50%, read-out: PDGF (E) IC50; for inhibition at 0.1 µM: G292, figure within parentheses in >100( ), at 100 nM, read-out: PDGF (E) inhibition (%) at 100 nM. Format: cell-based. Here is the method: Measurement of Inhibitory Activity Against PDGF-Ra Phosphorylation by PDGF-AA Stimulation Using G292
G-292 human osteosarcoma cells (Dainippon Pharmaceutical Co. Ltd.) were cultured in a DMEM medium (Dainippon Pharmaceutical Co. Ltd.) containing 10% FBS within an incubator containing 5% carbon dioxide until 80% confluent, and the cells were planted at 3×10^4 cells per well in 96-well flat-bottom plates in the same medium containing 0.1% FBS. After cultivation at 37° C. overnight, a solution of a test compound in dimethyl sulfoxide was added to each well, and a reaction was allowed to proceed at 37° C. for one hr.
After the reaction of the test compound, PDGF-AA (Upstate) was added to 50 ng/ml, and the cells were stimulated at 37° C. for 5 min. Thereafter, the cells were solubilized and shaken at room temperature for 20 min.
This solubilized cell solution was transferred to a 96-well plate coated with aniti-phosphotyrosine antibody PY-20, and a reaction was allowed to proceed at 4° C. overnight. Anti-PDGF-Ra (c-20) (Santa Cruz) was added as a primary antibody, and a reaction was allowed to proceed for one hr. GAR (Anti-rabbit Ig, horseradish peroxidase, Amersham) was then added as a secondary antibody, and a reaction was allowed to proceed for one hr. Color development was carried out using a color development kit for peroxidase (Sumitomo Bakelite Co., Ltd.), and the absorbance was measured at 450 nm.

T1 sequence (P16234 24-1089): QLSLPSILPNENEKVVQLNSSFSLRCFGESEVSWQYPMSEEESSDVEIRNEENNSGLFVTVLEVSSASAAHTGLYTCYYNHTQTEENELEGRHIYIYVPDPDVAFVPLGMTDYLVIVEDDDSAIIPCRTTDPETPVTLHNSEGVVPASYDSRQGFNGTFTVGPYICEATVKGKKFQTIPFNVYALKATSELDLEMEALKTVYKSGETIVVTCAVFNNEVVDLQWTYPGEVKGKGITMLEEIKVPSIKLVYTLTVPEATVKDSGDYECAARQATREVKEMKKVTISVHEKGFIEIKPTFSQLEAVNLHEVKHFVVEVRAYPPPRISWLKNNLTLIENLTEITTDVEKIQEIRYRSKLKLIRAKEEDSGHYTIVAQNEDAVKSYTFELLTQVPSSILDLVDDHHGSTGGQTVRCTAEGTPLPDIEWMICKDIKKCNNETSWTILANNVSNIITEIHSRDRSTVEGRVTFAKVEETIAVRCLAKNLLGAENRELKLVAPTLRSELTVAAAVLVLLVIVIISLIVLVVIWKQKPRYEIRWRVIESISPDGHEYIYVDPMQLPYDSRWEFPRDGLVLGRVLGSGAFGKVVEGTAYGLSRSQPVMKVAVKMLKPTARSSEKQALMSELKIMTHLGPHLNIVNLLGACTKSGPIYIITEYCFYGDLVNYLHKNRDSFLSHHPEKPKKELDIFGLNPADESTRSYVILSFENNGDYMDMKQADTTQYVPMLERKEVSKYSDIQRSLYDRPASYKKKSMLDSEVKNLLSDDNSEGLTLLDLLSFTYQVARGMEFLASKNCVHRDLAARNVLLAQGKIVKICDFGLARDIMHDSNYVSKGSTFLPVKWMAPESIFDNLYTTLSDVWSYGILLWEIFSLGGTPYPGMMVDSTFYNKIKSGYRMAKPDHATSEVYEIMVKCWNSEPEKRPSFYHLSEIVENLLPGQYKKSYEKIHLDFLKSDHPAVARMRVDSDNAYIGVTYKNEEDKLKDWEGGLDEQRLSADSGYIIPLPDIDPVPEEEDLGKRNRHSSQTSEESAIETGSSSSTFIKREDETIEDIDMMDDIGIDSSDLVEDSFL

By IC50 is commonly meant the concentration at which inhibition is half-maximal. In general, inhibition refers to the change of the read-out against control, counted positive when it falls. As to `CCN(C(=O)OCc1ccccc1OC)c1ccc(Oc2ncnc3cc(OC)c(OC)cc23)cc1Cl` [Example 485, 2-Methoxybenzyl N-{2-chloro-4-[(6,7-dimethoxy-4-quinazolinyl)oxy]phenyl}-N-ethylcarbamate], the IC50 is more than 100 nM and the inhibition at 0.1 µM turned out to be 35%.
Regarding `CCN(C(=O)OCc1ccccc1C)c1ccc(Oc2ncnc3cc(OC)c(OC)cc23)cc1Cl` [Example 486, 2-Methylbenzyl N-{2-chloro-4-[(6,7-dimethoxy-4-quinazolinyl)oxy]phenyl}-N-ethylcarbamate], the IC50 was more than 100 nM and the inhibition at 0.1 µM was determined as 36%.
The corresponding values for `CCN(C(=O)OCc1ccccc1Cl)c1ccc(Oc2ncnc3cc(OC)c(OC)cc23)cc1Cl` [Example 487, 2-Chlorobenzyl N-{2-chloro-4-[(6,7-dimethoxy-4-quinazolinyl)oxy]phenyl}-N-ethylcarbamate] are more than 100 nM and 31%.
For `CCCC(CCC)OC(=O)N(CC)c1ccc(Oc2ncnc3cc(OC)c(OC)cc23)cc1Cl` [Example 488, 1-Propylbutyl N-{2-chloro-4-[(6,7-dimethoxy-4-quinazolinyl)oxy]phenyl}-N-ethylcarbamate], the IC50 is 98 nM.
On the same count and under the same terms, with `CCCC(CCC)OC(=O)N(C)c1ccc(Oc2ncnc3cc(OC)c(OC)cc23)cc1` [Example 493, 1-Propylbutyl N-{4-[(6,7-dimethoxy-4-quinazolinyl)oxy]phenyl}-N-methylcarbamate] the figure was 39 nM.
The same measure, in the same setting: with `C#CCC(CC)OC(=O)N(C)c1ccc(Oc2ncnc3cc(OC)c(OC)cc23)cc1` (centres unmarked) [Example 495, 1-Ethyl-3-butynyl N-{4-[(6,7-dimethoxy-4-quinazolinyl)oxy]phenyl}-N-methylcarbamate] the figure was 65 nM; with `COc1cc2nccc(Oc3ccc(NC(=S)NCCN4CCCCC4)c(C)c3C)c2cc1OC` [Example 512, N-{4-[(6,7-Dimethoxy-4-quinolyl)oxy]-2,3-dimethylphenyl}-N′-(2-piperidinylethyl)thiourea], 29 nM.
`COc1cc2ncnc(Oc3ccc(NC(=S)NC4CCN(Cc5ccccc5)CC4)cc3)c2cc1OC` [Example 518, N-{4-[(6,7-Dimethoxy-4-quinazolinyl)oxy]phenyl}-N′-[4-(1-benzylpiperidinyl)]thiourea]: the IC50 was more than 100 nM and the inhibition at 0.1 µM stood at 17%.
Consider `COc1cc2ncnc(Oc3ccc(NC(=S)NCCNC(C)=O)cc3)c2cc1OC` [Example 519], for which the IC50 is more than 100 nM and the inhibition at 0.1 µM stood at 22%.
For `COc1cc2nccc(Oc3ccc(NC(=S)NNC4CCCCC4)c(C)c3C)c2cc1OC` [Example 520, N-{4-[(6,7-Dimethoxy-4-quinolyl)oxy]-2,3-dimethylphenyl}-N′-(N-cyclohexylamino)thiourea] the same measures were more than 100 nM and 43%.
In the case of `COc1cc2nccc(Oc3ccc(NC(=S)NN4CCCCC4)c(C)c3C)c2cc1OC` [Example 521, N-{4-[(6,7-Dimethoxy-4-quinolyl)oxy]-2,3-dimethylphenyl}-N′-(1-piperidinyl)thiourea], the IC50 was more than 100 nM.
Same read-out and setting: with `COc1cc2nccc(Oc3cc(C)c(NC(=S)NN4CCCCC4)cc3C)c2cc1OC` [Example 522, N-{4-[(6,7-Dimethoxy-4-quinolyl)oxy]-2,5-dimethylphenyl}-N′-(1-piperidinyl)thiourea] the figure was more than 100 nM.
For the compound `CCN(CC)CCCNC(=S)Nc1cc(C)c(Oc2ccnc3cc(OC)c(OC)cc23)cc1C` [Example 551, N-{4-[(6,7-Dimethoxy-4-quinolyl)oxy]-2,5-dimethylphenyl}-N′-(3-diethylaminopropyl)thiourea], the IC50 was more than 100 nM and the inhibition at 0.1 µM stood at 19%.
For `COc1cc2nccc(Oc3cc(C)c(NC(=S)NCCCN4CCCCC4C)cc3C)c2cc1OC` (centres unmarked) [Example 554, N-{4-[(6,7-Dimethoxy-4-quinolyl)oxy]-2,5-dimethylphenyl}-N′-[3-(2-methylpiperidinyl)propyl]thiourea] the same measures were more than 100 nM and 14%.
In the case of `COc1cc2nccc(Oc3ccc(NC(=O)NC4CCN(CC5CCCCC5)C4)cc3)c2cc1OC` (centres unmarked) [Example 585, N-[1-(Cyclohexylmethyl)tetrahydro-1H-3-pyrrolyl]-N′-{4-[(6,7-dimethoxy-4-quinolyl)oxy]phenyl}urea], the IC50 is more than 100 nM and the inhibition at 0.1 µM came to 32%.
As for `CCN(CC)C(C)CNC(=S)Nc1ccc(Oc2ccnc3cc(OC)c(OC)cc23)cc1` (centres unmarked) [Example 588, N-{4-[(6,7-Dimethoxy-4-quinolyl)oxy]phenyl}-N′-(2-diethylaminopropyl)thiourea], the IC50 amounted to 36 nM.
For `COc1cc2nccc(Oc3ccc(NC(=O)NN4CCCCC4)c(C)c3C)c2cc1OC` [Example 593, N-{4-[(6,7-Dimethoxy-4-quinolyl)oxy]-2,3-dimethylphenyl}-N′-(1-piperidinyl)urea], the IC50 was 51 nM.
As to `CCN(CC)CCNC(=O)Nc1ccc(Oc2ccnc3cc(OC)c(OC)cc23)cc1C` [Example 649, N-[2-(Diethylamino)ethyl]-N′-{4-[(6,7-dimethoxy-4-quinolyl)oxy]-2-methylphenyl}urea], the IC50 turned out to be 39 nM.
The same measure, in the same setting: as for `COc1cc2ncnc(Oc3ccc(NC(=O)NCCN(C(C)C)C(C)C)c([N+](=O)[O-])c3)c2cc1OC` [Example 659, N-[2-(Diisopropylamino)ethyl]-N′-{4-[(6,7-dimethoxy-4-quinazolinyl)oxy]-2-nitrophenyl}urea], the figure is 19 nM.
Still for that read-out and setting: as for `COc1ccc(CCC(=O)NC(=S)Nc2ccc(Oc3ccnc4cc(OC)c(OC)cc34)c(Cl)c2)cc1OC` [Example 712, N-{3-Chloro-4-[(6,7-dimethoxy-4-quinolyl)oxy]phenyl}-N′-[3-(3,4-dimethoxyphenyl)propanoyl]thiourea], the figure is 83 nM.
As to `COc1cc2nccc(Oc3cc(C)c(NC(=S)NC(=O)c4cc(C)oc4C)cc3C)c2cc1OC` [Example 717, N-{4-[(6,7-Dimethoxy-4-quinolyl)oxy]-2,5-dimethylphenyl}-N′-[(2 5-dimethyl-3-furyl)carbonyl]thiourea], the IC50 is more than 100 nM and the inhibition at 0.1 µM is 8%.
In the case of `COc1cc2nccc(Oc3ccc(NC(=S)NC(=O)CCCCc4ccccc4)cc3)c2cc1OC` [Example 727, N-{4-[(6,7-Dimethoxy-4-quinolyl)oxy]phenyl}-N′-(5-phenylpentanoyl)thiourea], the IC50 stood at 52 nM.
On the same count and under the same terms, with `COc1cc2nccc(Oc3ccc(NC(=S)NC(=O)CCc4ccccc4C)cc3Cl)c2cc1OC` [Example 732, N-{3-Chloro-4-[(6,7-dimethoxy-4-quinolyl)oxy]phenyl}-N′-[3-(2-methylphenyl)propanoyl]thiourea] the figure was 48 nM.
On the same count and under the same terms, as for `COc1cc2nccc(Oc3ccc(NC(=S)NC(=O)Cc4ccccc4[N+](=O)[O-])cc3)c2cc1OC` [Example 735, N-{4-[(6,7-Dimethoxy-4-quinolyl)oxy]phenyl}-N′-[2-(2-nitrophenyl)acetyl]thiourea], the figure is 15 nM; as for `COc1cc2nccc(Oc3ccc(NC(=S)NC(=O)Cc4ccccc4[N+](=O)[O-])cc3Cl)c2cc1OC` [Example 736, N-{3-Chloro-4-[(6,7-dimethoxy-4-quinolyl)oxy]phenyl}-N′-[2-(2-nitrophenyl)acetyl]thiourea], 72 nM.
